Drawing on ChEMBL document CHEMBL1158376, “Azadirachtin, a scientific gold mine” (Bioorg Med Chem, 2009), this text covers inhibition and LD50 for 1 compound.

In series [1] the test system is Drosophila melanogaster. Kind of series: Induction of nuclear damage in Drosophila melanogaster Kc167 cells after 6 hrs. Format: functional.
Series [2] concerns Drosophila melanogaster. Kind of series: Antiproliferative activity against Drosophila melanogaster Kc167 cells after 48 hrs. Format: functional.
The nature of series [3]: Toxicity in rat. Format: organism-based. To be noted: in vivo.

Turning to `C/C=C(\C)C(=O)O[C@H]1C[C@@H](OC(C)=O)[C@@]2(C(=O)OC)CO[C@H]3[C@@H](O)[C@@](C)([C@]45O[C@@]4(C)[C@@H]4C[C@H]5O[C@@H]5OC=C[C@@]54O)[C@H]4[C@]1(CO[C@]4(O)C(=O)OC)[C@@H]32` [AZADIRACHTIN A], the inhibition entry in the series on Drosophila melanogaster [1] and in the series on Drosophila melanogaster [2] was “Dose-dependent effect” throughout. Also, the LD50 in series [3] is > 3540 mg/kg.
